Experimental data reported in PubChem BioAssay AID330 (DTP/NCI, 2004).
Several values for one entry are separate records, joined by “and”; a condition that tells them apart may be missing. Equal entries are not always repeated. Inconclusive results and toxic doses are left out.

System: P388 leukemia ip, CD2F1 mice, survival T/C
Assay: NCI In Vivo Anticancer Drug Screen. Data for tumor model P388 Leukemia (intraperitoneal) in CD2F1 (CDF1) mice
Conditions: endpoint: median survival time, higher = longer survival
How it was run: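 Mice carrying the transplanted tumor received test compound or vehicle. Survival was recorded in each group, and the value is the treated-group measurement divided by that of the vehicle-treated control group.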

[1] = dose: 50.0 mg/kg/injection, schedule: Q01DX005 (ip), vehicle: saline with Tween-80
[2] = dose: 100.0 mg/kg/injection, schedule: Q01DX005 (ip), vehicle: saline with Tween-80
[3] = dose: 200.0 mg/kg/injection, schedule: Q01DX005 (ip), vehicle: saline with Tween-80
[4] = dose: 50.0 mg/kg/injection, schedule: Q01DX009 (ip), vehicle: suspension in saline
[5] = dose: 100.0 mg/kg/injection, schedule: Q01DX009 (ip), vehicle: suspension in saline
[6] = dose: 200.0 mg/kg/injection, schedule: Q01DX009 (ip), vehicle: suspension in saline
[7] = dose: 50.0 mg/kg/injection, schedule: Q01DX005 (ip), vehicle: Klucel (hydroxypropylcellulose) (HPC)
[8] = dose: 100.0 mg/kg/injection, schedule: Q01DX005 (ip), vehicle: Klucel (hydroxypropylcellulose) (HPC)
[9] = dose: 200.0 mg/kg/injection, schedule: Q01DX005 (ip), vehicle: Klucel (hydroxypropylcellulose) (HPC)
[10] = dose: 25.0 mg/kg/injection, schedule: Q01DX005 (ip), vehicle: Klucel (hydroxypropylcellulose) (HPC)
[11] = dose: 12.5 mg/kg/injection, schedule: Q01DX009 (ip), vehicle: Klucel (hydroxypropylcellulose) (HPC)
[12] = dose: 25.0 mg/kg/injection, schedule: Q01DX009 (ip), vehicle: Klucel (hydroxypropylcellulose) (HPC)
[13] = dose: 50.0 mg/kg/injection, schedule: Q01DX009 (ip), vehicle: Klucel (hydroxypropylcellulose) (HPC)
[14] = dose: 100.0 mg/kg/injection, schedule: Q01DX009 (ip), vehicle: Klucel (hydroxypropylcellulose) (HPC)
[15] = dose: 200.0 mg/kg/injection, schedule: Q01DX009 (ip), vehicle: Klucel (hydroxypropylcellulose) (HPC)

SMILES: CSc1ncc(C#N)c2nc(-c3ccccc3)nn12
- T/C [1]: 97 % of control
- T/C [2]: 94 % of control
- T/C [3]: 88 % of control

SMILES: Cc1cc(NC(=S)SC(C)C)ccc1Br
- T/C [4]: 100 % of control
- T/C [5]: 101 % of control
- T/C [6]: 100 % of control

SMILES: N#Cc1cccn1OCN1C(=O)c2ccccc2C1=O
- T/C (dose: 25.0 mg/kg/injection, schedule: Q04DX003 (ip), vehicle: Klucel (hydroxypropylcellulose) (HPC)): 100 % of control
- T/C (dose: 50.0 mg/kg/injection, schedule: Q04DX003 (ip), vehicle: Klucel (hydroxypropylcellulose) (HPC)): 103 % of control
- T/C (dose: 100.0 mg/kg/injection, schedule: Q04DX003 (ip), vehicle: Klucel (hydroxypropylcellulose) (HPC)): 100 % of control and 92 % of control
- T/C (dose: 400.0 mg/kg/injection, schedule: Q04DX003 (ip), vehicle: Klucel (hydroxypropylcellulose) (HPC)): 87 % of control

SMILES: CCCCOC(=O)C1ON(c2ccc(C=O)cc2)C(c2ccc([N+](=O)[O-])cc2)C1C(=O)OCCCC (centres undefined)
- T/C [7]: 97 % of control
- T/C [8]: 94 % of control
- T/C [9]: 91 % of control

SMILES: CC(C)(C)SSC(=S)C(c1ccccc1)c1ccccc1
- T/C (dose: 50.0 mg/kg/injection, schedule: Q01DX005 (ip), vehicle: saline + Tween-80 + alcohol): 105 % of control
- T/C (dose: 100.0 mg/kg/injection, schedule: Q01DX005 (ip), vehicle: saline + Tween-80 + alcohol): 107 % of control
- T/C (dose: 200.0 mg/kg/injection, schedule: Q01DX005 (ip), vehicle: saline + Tween-80 + alcohol): 96 % of control

SMILES: CCOC(=O)C(=CN(C)c1ccc(C)cc1)C(=O)OCC
- T/C (dose: 50.0 mg/kg/injection, schedule: Q01DX009 (ip), vehicle: saline with Tween-80): 100 % of control
- T/C (dose: 100.0 mg/kg/injection, schedule: Q01DX009 (ip), vehicle: saline with Tween-80): 103 % of control
- T/C (dose: 200.0 mg/kg/injection, schedule: Q01DX009 (ip), vehicle: saline with Tween-80): 95 % of control

SMILES: Cc1nc2cc3c(cc2n2cccc12)oc1ccccc13
- T/C [10]: 88 % of control
- T/C [7]: 96 % of control
- T/C [8]: 86 % of control

SMILES: CC(C)(C)OC(=O)NC(COCc1ccccc1)C(=O)ON1C(=O)CCC1=O (centres undefined)
- T/C [1]: 114 % of control
- T/C [2]: 103 % of control

SMILES: COc1cc2c(cc1O)CCCCC2
- T/C (dose: 100.0 mg/kg/injection, schedule: Q01DX009 (sc), vehicle: olive oil, sesame oil, peanut oil): 101 % of control
- T/C (dose: 200.0 mg/kg/injection, schedule: Q01DX009 (sc), vehicle: olive oil, sesame oil, peanut oil): 101 % of control
- T/C (dose: 400.0 mg/kg/injection, schedule: Q01DX009 (sc), vehicle: olive oil, sesame oil, peanut oil): 104 % of control

SMILES: OCCCCc1nccc2c1[nH]c1ccccc12
- T/C [11]: 106 % of control
- T/C [12]: 106 % of control
- T/C [13]: 104 % of control
- T/C [14]: 95 % of control

SMILES: O=c1cc(O)c2ccc3ccccc3c2o1
- T/C [1]: 89 % of control
- T/C [2]: 87 % of control
- T/C [3]: 92 % of control

SMILES: C=CCNC(=S)N/N=C(/C=C/c1ccc(OC)cc1)CCN(C)C
- T/C (dose: 100.0 mg/kg/injection, schedule: Q01DX001 (ip), vehicle: saline with Tween-80): 87 % of control
- T/C (dose: 200.0 mg/kg/injection, schedule: Q01DX001 (ip), vehicle: saline with Tween-80): 89 % of control
- T/C (dose: 400.0 mg/kg/injection, schedule: Q01DX001 (ip), vehicle: saline with Tween-80): 90 % of control

SMILES: O=C1CSC2=NCCN12
- T/C [4]: 101 % of control
- T/C [5]: 107 % of control
- T/C [6]: 115 % of control

SMILES: O=C(O)C(O)C(O)C(OC1OC(CO)C(O)C(O)C1O)C(O)CO (centres undefined)
- T/C (dose: 50.0 mg/kg/injection, schedule: Q01DX005 (ip), vehicle: saline): 105 % of control
- T/C (dose: 100.0 mg/kg/injection, schedule: Q01DX005 (ip), vehicle: saline): 101 % of control
- T/C (dose: 200.0 mg/kg/injection, schedule: Q01DX005 (ip), vehicle: saline): 102 % of control

SMILES: CCCCC#CCOCC(O)CCl (centres undefined)
- T/C [11]: 100 % of control
- T/C [12]: 100 % of control
- T/C [13]: 98 % of control
- T/C [14]: 100 % of control
- T/C [15]: 103 % of control

SMILES: O=[N+]([O-])c1ccc(N/N=C/c2ccnc3ccccc23)cc1
- T/C [14]: 95 % of control
- T/C [15]: 86 % of control
- T/C (dose: 400.0 mg/kg/injection, schedule: Q01DX009 (ip), vehicle: Klucel (hydroxypropylcellulose) (HPC)): 95 % of control

SMILES: COC(=O)CNP(=O)(NCC(=O)OC)N(CCCl)CCCl
- T/C (dose: 30.0 mg/kg/injection, schedule: Q01DX005 (ip), vehicle: saline): 102 % of control
- T/C (dose: 60.0 mg/kg/injection, schedule: Q01DX005 (ip), vehicle: saline): 115 % of control
- T/C (dose: 120.0 mg/kg/injection, schedule: Q01DX005 (ip), vehicle: saline): 153 % of control and 161 % of control
- T/C (dose: 240.0 mg/kg/injection, schedule: Q01DX005 (ip), vehicle: saline): 161 % of control and 238 % of control

SMILES: CCNC1(c2ccccc2)CCCCC1
- T/C (dose: 6.25 mg/kg/injection, schedule: Q04DX003 (ip), vehicle: saline): 121 % of control
- T/C (dose: 12.5 mg/kg/injection, schedule: Q04DX003 (ip), vehicle: saline): 106 % of control
- T/C (dose: 25.0 mg/kg/injection, schedule: Q04DX003 (ip), vehicle: saline): 104 % of control

SMILES: O=C(Nc1ccc(Oc2ccc(Cl)cc2)c(Cl)c1)c1cc(I)cc(I)c1O
- T/C (dose: 12.5 mg/kg/injection, schedule: Q01DX005 (ip), vehicle: Klucel (hydroxypropylcellulose) (HPC)): 96 % of control
- T/C [10]: 109 % of control
- T/C [7]: 101 % of control and 115 % of control

SMILES: Cc1ccc(-n2c(=S)n(-c3ccccc3C)c3nc4ccccc4nc2/c3=N\Nc2ccc(Cl)cc2)cc1
- T/C [1]: 92 % of control
- T/C [2]: 88 % of control
- T/C [3]: 95 % of control

SMILES: CCN(CC)CCNC1CC2CCC1(C)C2(C)C (centres undefined)
- T/C (dose: 25.0 mg/kg/injection, schedule: Q01DX005 (ip), vehicle: saline with Tween-80): 98 % of control
- T/C [1]: 91 % of control
- T/C [2]: 89 % of control

SMILES: Cn1nnc(-c2cccc(F)c2)n1
- T/C [10]: 105 % of control
- T/C [7]: 91 % of control and 96 % of control
- T/C [8]: 93 % of control
- T/C [9]: 91 % of control

SMILES: CC(C)=CC(=O)OC(=O)C=C(C)C
- T/C (dose: 100.0 mg/kg/injection, schedule: Q04DX003 (ip), vehicle: other): 100 % of control
- T/C (dose: 200.0 mg/kg/injection, schedule: Q04DX003 (ip), vehicle: other): 100 % of control
- T/C (dose: 400.0 mg/kg/injection, schedule: Q04DX003 (ip), vehicle: other): 100 % of control

SMILES: C=C[P+](c1ccccc1)(c1ccccc1)c1ccccc1
- T/C (dose: 0.37 mg/kg/injection, schedule: Q01DX009 (ip), vehicle: saline): 104 % of control
- T/C (dose: 0.75 mg/kg/injection, schedule: Q01DX009 (ip), vehicle: saline): 105 % of control
- T/C (dose: 1.5 mg/kg/injection, schedule: Q01DX009 (ip), vehicle: saline): 116 % of control

SMILES: O=C1NC(=O)C2(CC3CCCC(C2)N3CCO)N1 (centres undefined)
- T/C (dose: 50.0 mg/kg/injection, schedule: Q01DX009 (ip), vehicle: water): 101 % of control
- T/C (dose: 100.0 mg/kg/injection, schedule: Q01DX009 (ip), vehicle: water): 101 % of control
- T/C (dose: 200.0 mg/kg/injection, schedule: Q01DX009 (ip), vehicle: water): 100 % of control

SMILES: CC[C@@]1(O)C[C@H](OC2CC(N)C(O)C(C)O2)c2c(O)c3c(c(O)c2[C@H]1C(=O)OC)C(=O)c1cccc(O)c1C3=O (some centres undefined)
- T/C (dose: 1.0 mg/kg/injection, schedule: Q01DX009 (ip), vehicle: water): 115 % of control
- T/C (dose: 2.0 mg/kg/injection, schedule: Q01DX009 (ip), vehicle: water): 116 % of control
- T/C (dose: 2.3 mg/kg/injection, schedule: Q01DX009 (ip), vehicle: water): 123 % of control
- T/C (dose: 12.5 mg/kg/injection, schedule: Q01DX001 (ip), vehicle: water): 116 % of control
- T/C (dose: 16.0 mg/kg/injection, schedule: Q01DX009 (ip), vehicle: water): 86 % of control
- T/C (dose: 25.0 mg/kg/injection, schedule: Q01DX001 (ip), vehicle: water): 150 % of control

SMILES: Cc1noc(C)c1C(=O)CCCCC(=O)O
- T/C (dose: 60.0 mg/kg/injection, schedule: Q01DX005 (ip), vehicle: saline with Tween-80): 102 % of control
- T/C (dose: 120.0 mg/kg/injection, schedule: Q01DX005 (ip), vehicle: saline with Tween-80): 95 % of control
- T/C (dose: 240.0 mg/kg/injection, schedule: Q01DX005 (ip), vehicle: saline with Tween-80): 104 % of control
